From US20240287533A1, “GLUTEN MODIFICATION” (The Regents of the University of California, priority 2021, published 2024)
“Also recorded” adds a separate entry of the source.

Columns and labels:
human monocytes (THP-1) = assay: IL-8 production by THP-1 monocytes (ELISA); assay type: cell-based; conditions: 18 hours; for IL-8 production compared to the dsDNA-gld-1 complex: peptide in the presence of dsDNA; for IL-8 secretion: dsDNA+peptide, compared to media control, dsDNA alone or peptide alone
Description: (§1) In order to test the biological impact of gluten peptide fragment/dsDNA complexes, human monocytes (THP-1) and human colorectal adenocarcinoma cells (HT-29) were treated with medium as a control, dsDNA alone, gld-1 alone, or dsDNA+gld-1 for 18 hours, then production and secretion of interleukin-8 (IL-8) were assessed by ELISA.

Escherichia coli dsDNA = assay: Small Angle X-ray Scattering (SAXS) of peptide-dsDNA complexes; assay type: binding; conditions: peptide incubated with genomic E. coli dsDNA
Description: The peaks correspond to a rhombic columnar lattice with inter dsDNA spacing, d=4.0 nm, and tilt angle, γ=104.6°. To facilitate visualization, spectra were manually offset vertically by a multiplicative factor.
Double stranded DNA (dsDNA) is an example of a PAMP that is readily available in the gastrointestinal tract (e.g., from food or the gut microbiome). To assess the ability of gluten derived peptide gld-1 to bind dsDNA, Escherichia coli dsDNA was incubated with gld-1, and the formation of an ordered dsDNA-gld-1 complex was assessed.
Small Angle X-ray Scattering (SAXS) measurements of the complex produced Bragg reflections at q10=1.61 and q11=2.55 nm^−1.
Genomic E. coli dsDNA was incubated with gld-2 and gld-3 to test the formation of an ordered dsDNA-peptide complex.

[1] = system: TLR9 knock-out (TLR9KO) mouse macrophages; assay: Cytokine gene expression (qPCR) in TLR9 knockout macrophages; assay type: cell-based; conditions: dsDNA-peptide complex, 20 hours, TLR9KO versus wild-type
Description: (§2) To further validate the role of the dsDNA-gld-1 complex in the innate immune activation of TLR9, TLR9 knock-out (TLR9KO) mouse macrophages were compared to wild-type controls. […] Such increased gene expression was attenuated in TLR9KO macrophages, which lack TLR9 (FIG. 6C).

human wild-type TLR9 = molecular target: T1, human wild-type TLR9 (Homo sapiens, UniProt Q9NR96); assay: NF-κB/IL-8 luciferase reporter in HEK293 cells transfected with TLR9 plasmid; assay type: cell-based; conditions: 4 hours
T1 construct: expressed in transfected cells
T1 sequence (Q9NR96 26-1032): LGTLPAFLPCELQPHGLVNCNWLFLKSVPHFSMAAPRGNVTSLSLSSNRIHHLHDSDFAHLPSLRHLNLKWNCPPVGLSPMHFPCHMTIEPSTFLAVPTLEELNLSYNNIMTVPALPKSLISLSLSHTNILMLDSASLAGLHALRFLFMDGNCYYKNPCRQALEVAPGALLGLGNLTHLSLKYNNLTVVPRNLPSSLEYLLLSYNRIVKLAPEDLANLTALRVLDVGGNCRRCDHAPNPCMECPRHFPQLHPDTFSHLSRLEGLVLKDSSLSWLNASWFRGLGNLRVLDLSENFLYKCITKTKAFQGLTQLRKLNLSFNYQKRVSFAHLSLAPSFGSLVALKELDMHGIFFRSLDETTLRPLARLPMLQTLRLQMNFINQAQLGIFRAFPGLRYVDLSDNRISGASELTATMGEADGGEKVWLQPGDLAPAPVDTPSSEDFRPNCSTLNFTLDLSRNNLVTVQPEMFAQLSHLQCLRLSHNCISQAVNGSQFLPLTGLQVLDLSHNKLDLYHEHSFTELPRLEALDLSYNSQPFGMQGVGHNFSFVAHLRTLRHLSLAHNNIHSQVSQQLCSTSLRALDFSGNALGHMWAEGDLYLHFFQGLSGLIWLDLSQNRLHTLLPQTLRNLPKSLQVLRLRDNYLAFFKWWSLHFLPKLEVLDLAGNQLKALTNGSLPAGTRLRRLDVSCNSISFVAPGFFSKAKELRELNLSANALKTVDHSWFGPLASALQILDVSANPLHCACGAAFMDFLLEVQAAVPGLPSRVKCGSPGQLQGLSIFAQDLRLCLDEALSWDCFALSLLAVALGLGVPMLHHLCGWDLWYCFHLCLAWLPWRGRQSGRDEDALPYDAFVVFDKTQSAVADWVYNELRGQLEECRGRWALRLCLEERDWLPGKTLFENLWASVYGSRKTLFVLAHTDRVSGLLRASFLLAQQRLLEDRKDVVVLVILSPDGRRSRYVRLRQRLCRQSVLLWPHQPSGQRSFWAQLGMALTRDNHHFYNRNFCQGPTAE
Description: TLR9, Toll-like Receptor 9.
(§3) After 48 hours of recovery, cells were then treated for 4 hours with medium as a control, dsDNA alone, gld-1 peptide alone, or dsDNA-gld-1 complex, and luciferase activity measured.

[2] = system: HEK293 cells (which do not express TLR9); assay: NF-κB/IL-8 luciferase reporter in HEK293 cells transfected with pcDNA3.1 vector control; assay type: cell-based, human; conditions: 4 hours
Description: as §3

wild-type macrophages = assay: Cytokine gene expression (qPCR) in wild-type macrophages; assay type: cell-based, mouse; conditions: dsDNA-peptide complex, 20 hours
Description: as §2

[3] = system: human colorectal adenocarcinoma cells (HT-29); assay: IL-8 production by HT-29 cells (ELISA); assay type: cell-based; conditions: dsDNA+peptide, 18 hours, compared to dsDNA or peptide alone or media control
Description: as §1

In the case of “LAAQLWQIPEQSRAQAIHNVVH (listed as Triticum aestivum) [gld-1A, variant of gld-1 in which all cysteines were replaced with alanines]”, the “IL-8 production compared to the dsDNA-gld-1 complex” value (human monocytes (THP-1)) is reported as “reduced the dsDNA-peptide complex activity”.
In the case of “LWQIPEQSQCQAIHNVVHA (listed as Triticum aestivum) [gld-2, single mutation of gld-1 replacing a cationic amino acid with glutamine]”, the “formation of an ordered nanocrystalline dsDNA-peptide complex (Bragg peaks)” value (“formation” for short) (Escherichia coli dsDNA) is reported as “inability of these two peptides to form an ordered nanocrystalline columnar structure with dsDNA” and the “IL-8 production compared to the dsDNA-gld-1 complex” value (human monocytes (THP-1)) is reported as “attenuated production of IL-8”.
For “LWQIPEQSQCQAIHNVVQA (listed as Triticum aestivum) [gld-3, double mutation of gld-1 replacing cationic amino acids with glutamine]”, the “formation” value (Escherichia coli dsDNA) was “inability of these two peptides to form an ordered nanocrystalline columnar structure with dsDNA” and the “IL-8 production compared to the dsDNA-gld-1 complex” value (human monocytes (THP-1)) was “attenuated production of IL-8”.
“LWQIPEQSRCQAIHNVVHA (listed as Triticum aestivum) [gld-1]” was tested, and the “formation” value (Escherichia coli dsDNA) was “form strongly immunomodulatory complexes with dsDNA; also recorded: able to organize dsDNA into a nano-crystalline lattice structure; also recorded: able to form a well-structured complex”, the IL-6 gene expression [1] was “attenuated” and the “NF-κB/IL-8 activation (luciferase)” value (human wild-type TLR9; dsDNA-peptide complex, compared to dsDNA alone) was “significantly higher activation”. For the same sequence, the “NF-κB/IL-8 activation (luciferase)” value (human wild-type TLR9; dsDNA-peptide complex, compared to the media control) was “significant increase”, the “NF-κB/IL-8 activation (luciferase)” value (human wild-type TLR9; peptide alone, compared to the media control) was “did not significantly increase activation” and the “NF-κB/IL-8 luciferase reporter signal” value ([2]; dsDNA-peptide complex) was “comparable NF-κB/IL-8 luciferase reporter signal to the media control”. The “NF-κB/IL-8 luciferase reporter signal” value ([2]; peptide alone) was “comparable NF-κB/IL-8 luciferase reporter signal to the media control”, the IL-8 secretion (human monocytes (THP-1)) was “significant increase in IL-8 secretion” and the “interleukin-6 (IL-6) gene expression” value (wild-type macrophages) was “significant increase”. For the same sequence, the “keratinocyte-derived chemokine (KC) gene expression” value (wild-type macrophages) was “significant increase” and the IL-8 secretion [3] was “increased secretion of IL-8”.
For “RAAQQLRDVSAKARSVAVSQVAR (listed as Triticum aestivum) [gld-4A, cysteine-to-alanine mutant of gld-4]”, the “IL-8 production, gld-4A compared to gld-4” value (human monocytes (THP-1); with dsDNA) was “No significant difference”.
In the case of “RCCQQLRDVSAKCRSVAVSQVAR (listed as Triticum aestivum) [gld-4]”, the IL-8 secretion (human monocytes (THP-1)) is reported as “stimulated IL-8 production” and the “IL-8 production compared to the dsDNA-gld-1 complex” value (human monocytes (THP-1)) is reported as “smaller than the dsDNA-gld-1 complex”.
